Experimental data published in patent US20100261666A1, “COMPOSITIONS AND METHODS FOR THE TREATMENT OF MYOCARDIAL DYSFUNCTION ASSOCIATED WITH SIRS OR SEPSIS” (THE BOARD OF TRUSTEES OF THE UNIVERSITY OF ILLINOIS, priority 2009, published 2010).
Where two headings read alike, the source gives them in different places.

Experiments:
TNF-α = test: Real time PCR, left ventricular TNF-α mRNA expression; format: in vivo, rat; conditions: LPS infusion
Protocol: Total RNA was isolated from left ventricular tissue using the SV Total Isolation System (Promega Corp., Madison, Wis.). Isolation was performed according to manufacturer instructions and followed by DNAse treatment to eliminate residual genomic DNA contamination. RNA integrity was determined by loading 1.0 μg of total RNA isolate from each sample onto a 1.0% agarose gel and staining with ethidium bromide to visualize the 18 and 28s RNA bands. The amount of RNA recovered was determined using the Ribogreen RNA Quantification Kit (Molecular Probes, Eugene, Oreg.). […]
Specific primer sequences, GenBank accession numbers, Sequence Identifiers, and product sizes are disclosed in Table 5. […] For real-time PCRs, SYBR PCR Master Mix (Bio-Rad Laboratories, Hercules, Calif.) was used, and thermocycling and fluorescence detection was performed using a Stratagene Mx3000p real-time PCR machine.
After confirmation of primer efficiency and specificity, the concentrations of purified products generated by standard PCR were determined using Molecular Probe's Picogreen DNA quantification kit, and PCR products were serially diluted to obtain standards containing 10^1, 10^2, 10^3, 10^4, 10^5, and 10^6 copies of synthetic template. […]

adenosine deaminase = adenosine deaminase (Rattus norvegicus, UniProt Q920P6); conditions: LV tissue homogenates at 150 minute time point
Protocol: Assays were performed according to the manufacturer's instructions.

ADA = ADA (Homo sapiens, UniProt P00813); conditions: cited from earlier work
ADA, sequence (P00813 whole entry, species assumed): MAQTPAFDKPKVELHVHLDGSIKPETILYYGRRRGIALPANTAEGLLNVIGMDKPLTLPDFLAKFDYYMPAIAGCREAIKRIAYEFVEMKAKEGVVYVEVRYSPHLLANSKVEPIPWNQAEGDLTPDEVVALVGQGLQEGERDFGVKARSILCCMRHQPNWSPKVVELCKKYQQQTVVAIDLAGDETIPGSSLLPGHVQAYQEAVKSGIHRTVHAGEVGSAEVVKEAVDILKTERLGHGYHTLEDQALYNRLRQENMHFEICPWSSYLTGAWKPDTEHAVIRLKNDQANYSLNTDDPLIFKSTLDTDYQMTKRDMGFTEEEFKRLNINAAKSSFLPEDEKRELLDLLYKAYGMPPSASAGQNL

adenosine deaminase, sequence (Q920P6 whole entry): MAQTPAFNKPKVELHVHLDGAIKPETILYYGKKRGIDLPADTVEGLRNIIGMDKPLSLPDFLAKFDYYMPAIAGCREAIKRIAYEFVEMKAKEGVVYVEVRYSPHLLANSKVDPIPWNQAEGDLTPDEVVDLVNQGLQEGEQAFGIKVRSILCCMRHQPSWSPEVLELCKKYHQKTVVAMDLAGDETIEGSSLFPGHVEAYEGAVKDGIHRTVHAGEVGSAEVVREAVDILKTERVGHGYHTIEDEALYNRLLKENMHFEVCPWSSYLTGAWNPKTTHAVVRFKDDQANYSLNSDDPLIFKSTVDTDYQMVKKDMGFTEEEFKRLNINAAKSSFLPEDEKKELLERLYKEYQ

SMILES	left ventricular TNF-α mRNA expression compared to LPS hearts (TNF-α)	LV ADA activity compared to CON and LPS hearts (adenosine deaminase; LPS infusion)	LV ADA activity compared to CON and LPS hearts (adenosine deaminase; vehicle infusion)	binding between dCF and ADA (ADA)
Oc1ncnc2[nH]ncc12 [ALO, allopurinol]	significantly lower			
OC[C@H]1O[C@@H](n2cnc3c2N=CNCC3O)CC1O (stereo in doubt) [dCF, 2′-deoxycoformycin]	did not significantly alter	significant decrease	significant decrease	effectively irreversible
